{"source": "paper PMC12721191", "about": "“Oxidative hypoxia drives TGF-β1–induced fibrosis under normoxia” (Redox Biology, 2025)", "key": {"[1]": {"tested_on": "BLM-induced pulmonary fibrosis", "assay": "RT-qPCR of lung tissue in BLM-treated mice", "type": "in vivo, ICR mice", "details": "BLM 30 mg/kg; ACF-2 10 mg/kg i.p. every 2 days or NIDB 60 mg/kg/day", "procedure": "Total RNA (AccuPrep®) was reverse-transcribed and amplified with SYBR Green chemistry on a StepOnePlusTM system; relative expression was calculated by ΔΔCt. Male ICR mice received BLM (30 mg/kg, intratracheal). […] Total RNA was extracted from both cultured cells and mouse lung tissue using the AccuPrep® Universal RNA Extraction Kit. […] RT-qPCR was performed using iTaqTM Universal SYBR® Green Supermix on a StepOnePlusTM Real-Time PCR System. […] All animal studies were approved by the Institutional Animal Care and Use Committee of Jeju National University (Approval ID: 2024-0058) and conducted in compliance with institutional guidelines. Male ICR mice (6 weeks old, average body weight 27 g) were purchased from […] (South Korea) and housed under controlled temperature (22 ± 2 °C) and humidity (0.0 ± 15.0 %) on a 12 hr light-dark cycle with free access to food and water."}, "colon": {"tested_on": "colon", "assay": "Colonic histopathology in the BLM mouse study", "type": "in vivo, ICR mice", "details": "BLM mice; ACF-2 10 mg/kg i.p. every 2 days or NIDB 60 mg/kg/day", "text": "Fixed left lung lobes were paraffin-embedded, sectioned (4 μm), and stained with H&E or MT. A blinded pathologist graded pulmonary fibrosis on the 1-8 Ashcroft scale; representative images illustrate typical lesions. Colon samples were processed by the swiss-roll method, stained with H&E, and scored for inflammation and erosion, which were combined into a composite histological score. All animal studies were approved by the Institutional Animal Care and Use Committee of Jeju National University (Approval ID: 2024-0058) and conducted in compliance with institutional guidelines. Male ICR mice (6 weeks old, average body weight 27 g) were purchased from […] (South Korea) and housed under controlled temperature (22 ± 2 °C) and humidity (0.0 ± 15.0 %) on a 12 hr light-dark cycle with free access to food and water. […] Colon tissue: Colons were harvested, flushed with 1xPBS, and prepared using the swiss-roll method before embedding in paraffin. Sections of 4 μm thickness were subjected to H&E staining as described above. Colonic injury was evaluated by two independent parameters: (i) inflammation score (0-3) and (ii) erosion score (0-3). A composite histological score was then calculated as the sum of inflammation and erosion scores for each sample."}, "[2]": {"tested_on": "BLM-induced pulmonary fibrosis", "assay": "BLM-induced pulmonary fibrosis, Ashcroft scoring of lung sections", "type": "in vivo, ICR mice", "details": "BLM 30 mg/kg intratracheal; ACF-2 10 mg/kg i.p. every 2 days or NIDB 60 mg/kg/day in drinking water, 2 weeks; BLM-only 6.2", "procedure": "Male ICR mice received BLM (30 mg/kg, intratracheal). […] Fixed left lung lobes were paraffin-embedded, sectioned (4 μm), and stained with H&E or MT. A blinded pathologist graded pulmonary fibrosis on the 1-8 Ashcroft scale; representative images illustrate typical lesions. Colon samples were processed by the swiss-roll method, stained with H&E, and scored for inflammation and erosion, which were combined into a composite histological score. All animal studies were approved by the Institutional Animal Care and Use Committee of Jeju National University (Approval ID: 2024-0058) and conducted in compliance with institutional guidelines. Male ICR mice (6 weeks old, average body weight 27 g) were purchased from […] (South Korea) and housed under controlled temperature (22 ± 2 °C) and humidity (0.0 ± 15.0 %) on a 12 hr light-dark cycle with free access to food and water. […] Lung tissue: Left lung lobes were fixed in 4% paraformaldehyde for 24 h, dehydrated, and embedded in paraffin. Sections of 4 μm thickness were prepared, deparaffinized with xylene, and rehydrated in a graded ethanol series. H&E staining was performed using hematoxylin and eosin solutions, respectively. The severity of fibrosis was graded according to the Ashcroft scale (1-8), as evaluated by a pathologist blindly. Representative H&E images were chosen to illustrate the most characteristic pathology. […]"}, "Recombinant PHD2": {"target": "T1, Recombinant PHD2 (Homo sapiens, UniProt Q9GZT9)", "T1 construct": "purchased ActiveMotif, Japan 81065", "T1 sequence (Q9GZT9 whole entry)": "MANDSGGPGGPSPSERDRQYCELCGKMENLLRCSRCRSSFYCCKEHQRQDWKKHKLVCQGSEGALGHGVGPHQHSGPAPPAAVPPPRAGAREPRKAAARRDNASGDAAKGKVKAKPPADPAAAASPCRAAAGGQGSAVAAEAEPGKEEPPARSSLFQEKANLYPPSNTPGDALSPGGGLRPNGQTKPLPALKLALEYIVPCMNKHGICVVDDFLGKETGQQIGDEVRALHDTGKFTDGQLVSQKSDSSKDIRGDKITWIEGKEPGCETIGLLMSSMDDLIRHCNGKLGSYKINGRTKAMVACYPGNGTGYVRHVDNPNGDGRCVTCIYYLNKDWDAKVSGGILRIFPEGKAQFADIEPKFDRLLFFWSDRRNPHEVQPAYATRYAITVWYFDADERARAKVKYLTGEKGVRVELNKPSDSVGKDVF", "assay": "In vitro PHD2 enzymatic assay (HIF peptide hydroxylation, HPLC)", "type": "biochemical", "procedure": "To identify whether TGF-β1 directly affects PHD2 enzymatic activity, we performed an in vitro PHD2 assay using synthetic HIF-1α peptide as a substrate (Fig. 2h). […] To further investigate whether Fe^2+ oxidation impairs PHD2 activity, we introduced H2O2 into the reaction to promote Fe^2+ oxidation.\nA reaction mixture (30 µL total volume) containing 300 µM HIF peptide, 1 µM recombinant PHD2, 20 mM Tris-HCl (pH 7.5), 1 mM DTT, 300 µM ascorbic acid, 5 mM KCl, 1.5 mM MgCl2, 50 µM Fe(SO4)·6H2O, and 300 µM α-ketoglutarate was incubated at 30 °C for 2 hr. The reaction was terminated by adding an equal volume (30 µL) of DMSO. Product analysis was carried out on Waters 2998 HPLC system equipped with a photodiode array detector and an XBridge™ BEH C18 column (4.6 × 250 mm, 5 µm), detecting at 280 nm. A hydroxylated HIF peptide served as a reference standard."}, "HIF-1α–EGFP in A549": {"tested_on": "HIF-1α–EGFP in A549", "assay": "pg-HIF-1α–EGFP fluorescence in transfected A549", "type": "cell-based, human", "details": "A549, co-treatment with TGF-β1", "procedure": "pg-HIF-1α–EGFP was introduced via jetOPTIMUS®; GFP fluorescence was quantified 48 h post-transfection.\nTransient transfection of A549 cells with pg-HIF-1α–EGFP was performed using jetOPTIMUS® according to the manufacturer’s protocol. Following 48 hr of transfection, the medium was replaced, and cells were treated with TGF-β1 at the specified concentration and duration before further analysis. Cell imaging was performed using an EVOS™ M7000 at 10×, 20×, or 40× magnification. GFP fluorescence intensity was measured using ImageJ. The mean fluorescence within the regions of interest (ROIs) was calculated after background subtraction, and values were normalized to the control condition"}, "A549 [3]": {"tested_on": "A549", "assay": "Western blot of HIF-1α, fibrosis and EMT markers in A549", "type": "cell-based, human", "details": "for HIF-1α and COL4A6 levels (Western blot): A549, TGF-β1 co-treatment"}, "A549 [4]": {"tested_on": "A549", "assay": "Scratch migration assay", "type": "cell-based, human", "details": "CoCl2 or FG-4592 treatment"}}, "data": [{"smiles": "COC(=O)c1ccc2c(c1)NC(=O)/C2=C(\\Nc1ccc(N(C)C(=O)CN2CCN(C)CC2)cc1)c1ccccc1", "note": "[NIDB, nintedanib, reference compound]", "values": [{"measurement": "TGF-β1 (Tgfb1) expression in lung (RT-qPCR)", "setting": "[1]", "value": "markedly reduced"}, {"measurement": "composite histological score of colon (inflammation + erosion)", "setting": "colon", "value": "significantly increased the composite histological score"}, {"measurement": "Average Ashcroft score", "setting": "[2]", "value": 3.8}]}, {"smiles": "O.Oc1cc(O)c2c(c1)O[C@H](c1ccc(O)c(O)c1)[C@@H](O)C2", "note": "[Catechin]", "values": [{"measurement": "effect on PHD2 activity", "setting": "Recombinant PHD2; ambient air, comparable concentrations to ACF-2", "value": "failed to preserve or enhance PHD2 activity"}]}, {"smiles": "c1ccc2c(c1)[I+]c1ccccc1-2", "note": "[DPI, diphenyleneiodonium chloride, reference compound]", "values": [{"measurement": "TGF-β1–induced HIF-1α–EGFP GFP fluorescence intensity", "setting": "HIF-1α–EGFP in A549", "value": "substantial drop in GFP intensity"}, {"measurement": "HIF-1α and COL4A6 levels (Western blot)", "setting": "A549 [3]", "value": "markedly reduced HIF-1α and COL4A6 levels"}]}, {"smiles": "Cc1nc(C(=O)NCC(=O)O)c(O)c2ccc(Oc3ccccc3)cc12", "note": "[FG-4592]", "values": [{"measurement": "fibrosis-associated proteins (fibronectin, α-SMA, COL3A1, COL4A6)", "setting": "A549 [3]; A549, ambient air, CoCl2 200 μM, FG-4592 50 μM", "value": "increased expression of fibrosis-associated proteins"}, {"measurement": "cell migration (wound healing)", "setting": "A549 [4]", "value": "significant increase in cell migration"}]}, {"smiles": "CN(C)c1cccc(-c2c3c(=O)n(-c4ccccc4Cl)[nH]c3cc(=O)n2C)c1", "note": "[Setanaxib]", "values": [{"measurement": "HIF-1α and COL4A6 levels (Western blot)", "setting": "A549 [3]", "value": "markedly reduced HIF-1α and COL4A6 levels"}]}, {"smiles": "OO", "note": "[H2O2]", "values": [{"measurement": "effect on PHD2 activity (H2O2 added to the reaction)", "setting": "Recombinant PHD2; H2O2 introduced to promote Fe2+ oxidation", "value": "inhibited PHD2 activity in a dose-dependent manner"}]}, {"smiles": "COc1cc(C(C)=O)ccc1O", "note": "[apocynin]", "values": [{"measurement": "HIF-1α and COL4A6 levels (Western blot)", "setting": "A549 [3]", "value": "markedly reduced HIF-1α and COL4A6 levels"}]}]}
